Results reported in publication PMC2755569 (The Pediatric Infectious Disease Journal, 2009).

Assays:
[1] = Steady-state plasma pharmacokinetics of LPV/RTV plus EFV, protocol P1058
[2] = range = 0.5- to 2.0-fold of target value; cited from earlier work
clinical = details: human, in vivo
[3] = human, in vivo
[4] = 15 South African children, median dose 352 mg/m^2 equivalent to 14 mg/kg; cited from earlier work
[5] = children dosed according to body weight-adjusted dose recommendations; cited from earlier work
[6] = median (range), steady state, LPV/RTV 300 mg/m^2 b.i.d. + EFV 350 mg/m^2 q.d., 15 patients

Row | Structure (SMILES) | concentration at 12 h ([1]; human, plasma, oral, Cmin (C12 h), median (range), LPV/RTV 300 mg/m^2 b.i.d. with EFV, 15 patients) [ng/mL] | CL (CL/F) [1, 6] | Tmax ([1]; median (range), steady state, LPV/RTV 300 mg/m^2 b.i.d. + EFV 350 mg/m^2 q.d., 15 patients, plasma) | Target GM (range) AUC12 [2] | AUC (clinical; 300 mg/m2, AUC (AUC12), GM (90% CI)) [ng·h/mL] | AUC (clinical; 300 mg/m2, AUCτ (AUC12)) [ng·h/mL] | AUC lower compared with pediatric and adult patients [3] [%] | Cmin lower compared with pediatric and adult patients ([3]; 24 h) [%] | Patients with estimated Cmin <1 mg/L [4] [%] | Patients with plasma concentrations below the targeted range [5] [%] | Target GM (range) AUC24 [2] | Target GM (range) C24 hours [2] | AUC ([1]; human, plasma, oral, 350 mg/m2, AUC24, GM (90% CI), geometric mean (90% CI), EFV 350 mg/m^2 q.d. with LPV/RTV) [ng·h/mL] | concentration at 24 h ([1]; human, plasma, oral, EstC24 hours, GM (90% CI), geometric mean (90% CI), EFV 350 mg/m^2 q.d. with LPV/RTV) [ng/mL]
1 | CC(C)c1nc(CN(C)C(=O)N[C@H](C(=O)N[C@@H](Cc2ccccc2)C[C@H](O)[C@H](Cc2ccccc2)NC(=O)OCc2cncs2)C(C)C)cs1 [RTV, ritonavir] | 300 | 11.8 (2.0–264.8) L/h | 3.0 (1.0–8.1) hr | – | – | – | – | – | – | – | – | – | – | –
2 | Cc1cccc(C)c1OCC(=O)N[C@@H](Cc1ccccc1)[C@@H](O)C[C@H](Cc1ccccc1)NC(=O)[C@H](C(C)C)N1CCCNC1=O [LPV, lopinavir] | – | – | – | 80 (40 –160) mg × h/L | 91300 | 100000 | – | – | – | – | – | – | – | –
3 | O=C1Nc2ccc(Cl)cc2[C@@](C#CC2CC2)(C(F)(F)F)O1 [EFV, efavirenz] | – | 8.5 (2.3–22.9) L/h | – | – | – | – | 30 | 60 | 40 | 64 | 64 (32–124) mg × h/L | 1.8 (0.9 –3.6) mg/L | 44100 | 800
